Literature values as cited in patent US7528137B2, “Compounds, compositions, and methods” (Cytokinetics, Inc., priority 2002, dated 2009).

Tested on: A549 cells
Conditions: data provided by National Cancer Institute, Developmental Therapeutic Program

Compound	GI50 [µM]
NC(=O)NO [hydroxyurea]	500
O=c1[nH]cc(F)c(=O)[nH]1 [5-fluorouracil]	1
COc1cccc2c1C(=O)c1c(O)c3c(c(O)c1C2=O)C[C@@](O)(C(=O)CO)C[C@@H]3O[C@H]1C[C@H](N)[C@H](O)[C@H](C)O1 [doxorubicin]	0.063
CC(=O)O[C@H]1C(=O)[C@@]2(C)[C@H]([C@H](OC(=O)c3ccccc3)[C@]3(O)C[C@H](OC(=O)[C@H](O)[C@@H](NC(=O)c4ccccc4)c4ccccc4)C(C)=C1C3(C)C)[C@]1(OC(C)=O)CO[C@@H]1C[C@@H]2O [paclitaxel]	0.004
